Test results published in ChEMBL document CHEMBL1629464, “Aldehyde oxidase: an enzyme of emerging importance in drug discovery” (J Med Chem, 2010).

Molecular target: T1, Aldehyde oxidase 1 (Oryctolagus cuniculus, UniProt P80456)
T1 sequence (P80456 whole entry): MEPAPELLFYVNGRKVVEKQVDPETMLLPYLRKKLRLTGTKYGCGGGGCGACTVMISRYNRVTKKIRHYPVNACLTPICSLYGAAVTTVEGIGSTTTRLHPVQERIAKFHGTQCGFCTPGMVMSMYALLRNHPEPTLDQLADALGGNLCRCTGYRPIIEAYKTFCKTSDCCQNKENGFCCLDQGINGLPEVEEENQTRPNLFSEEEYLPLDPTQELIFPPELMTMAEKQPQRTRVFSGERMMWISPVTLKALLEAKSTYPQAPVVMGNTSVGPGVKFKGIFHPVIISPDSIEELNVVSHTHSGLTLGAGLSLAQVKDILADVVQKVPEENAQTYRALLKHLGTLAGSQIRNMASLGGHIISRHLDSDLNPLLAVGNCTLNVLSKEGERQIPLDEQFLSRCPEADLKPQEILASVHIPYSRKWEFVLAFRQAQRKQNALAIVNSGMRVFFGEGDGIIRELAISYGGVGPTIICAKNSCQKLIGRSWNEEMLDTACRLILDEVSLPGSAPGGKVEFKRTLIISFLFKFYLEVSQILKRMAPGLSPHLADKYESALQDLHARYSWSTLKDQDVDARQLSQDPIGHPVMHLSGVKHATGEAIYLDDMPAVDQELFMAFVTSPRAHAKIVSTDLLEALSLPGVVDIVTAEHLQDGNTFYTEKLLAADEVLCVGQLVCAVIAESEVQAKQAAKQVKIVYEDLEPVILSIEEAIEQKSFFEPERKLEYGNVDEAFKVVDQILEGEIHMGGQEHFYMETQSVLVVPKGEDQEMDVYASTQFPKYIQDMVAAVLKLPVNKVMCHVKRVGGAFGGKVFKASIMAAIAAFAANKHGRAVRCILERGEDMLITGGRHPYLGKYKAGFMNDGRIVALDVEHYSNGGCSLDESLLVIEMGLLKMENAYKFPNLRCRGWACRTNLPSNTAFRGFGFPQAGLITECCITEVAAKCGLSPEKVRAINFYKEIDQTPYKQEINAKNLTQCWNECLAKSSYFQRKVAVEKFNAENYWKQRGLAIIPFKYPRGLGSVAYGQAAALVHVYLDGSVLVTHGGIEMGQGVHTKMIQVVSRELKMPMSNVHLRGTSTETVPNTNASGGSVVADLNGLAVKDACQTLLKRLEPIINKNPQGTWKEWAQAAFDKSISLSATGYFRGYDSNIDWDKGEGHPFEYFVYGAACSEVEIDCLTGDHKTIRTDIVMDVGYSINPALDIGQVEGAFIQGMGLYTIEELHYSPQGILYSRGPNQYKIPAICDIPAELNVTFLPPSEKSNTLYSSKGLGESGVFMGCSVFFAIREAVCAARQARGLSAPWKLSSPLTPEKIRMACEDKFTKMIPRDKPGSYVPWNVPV
Test: Inhibition of rabbit aldehyde oxidase

C[C@]12CC[C@@H]3c4ccc(O)cc4CC[C@H]3[C@@H]1CC[C@@H]2O [ESTRADIOL]
IC50: 40 µM
